The values that follow come from ChEMBL document CHEMBL5584227, “Piezo1 and its inhibitors: Overview and perspectives” (Eur J Med Chem, 2024).

In assay [1] the target is Piezo1 (Homo sapiens). The assay is described as follows: Antagonist activity at human Piezo1.
In assay [2] the target is Piezo1 (Homo sapiens). Put plainly: Inhibition of human Piezo1 assessed as intracellular calcium influx measured for 30 mins by Fluo-4 AM dye based fluorescence analysis.
Assay [3] deals with Amyloid-beta precursor protein (Homo sapiens, UniProt P05067). Put plainly: Inhibition of amyloid beta (1 to 42) (unknown origin) aggregation incubated for 24 hrs by ThT assay.
Assay [4] concerns the target Piezo1 (Homo sapiens). Put plainly: Antagonist activity at Yoda1-activated human Piezo1 in HUVECs assessed as inhibition of calcium influx by calcium fluorescence assay.

Amyloid-beta precursor protein, sequence (P05067 whole entry): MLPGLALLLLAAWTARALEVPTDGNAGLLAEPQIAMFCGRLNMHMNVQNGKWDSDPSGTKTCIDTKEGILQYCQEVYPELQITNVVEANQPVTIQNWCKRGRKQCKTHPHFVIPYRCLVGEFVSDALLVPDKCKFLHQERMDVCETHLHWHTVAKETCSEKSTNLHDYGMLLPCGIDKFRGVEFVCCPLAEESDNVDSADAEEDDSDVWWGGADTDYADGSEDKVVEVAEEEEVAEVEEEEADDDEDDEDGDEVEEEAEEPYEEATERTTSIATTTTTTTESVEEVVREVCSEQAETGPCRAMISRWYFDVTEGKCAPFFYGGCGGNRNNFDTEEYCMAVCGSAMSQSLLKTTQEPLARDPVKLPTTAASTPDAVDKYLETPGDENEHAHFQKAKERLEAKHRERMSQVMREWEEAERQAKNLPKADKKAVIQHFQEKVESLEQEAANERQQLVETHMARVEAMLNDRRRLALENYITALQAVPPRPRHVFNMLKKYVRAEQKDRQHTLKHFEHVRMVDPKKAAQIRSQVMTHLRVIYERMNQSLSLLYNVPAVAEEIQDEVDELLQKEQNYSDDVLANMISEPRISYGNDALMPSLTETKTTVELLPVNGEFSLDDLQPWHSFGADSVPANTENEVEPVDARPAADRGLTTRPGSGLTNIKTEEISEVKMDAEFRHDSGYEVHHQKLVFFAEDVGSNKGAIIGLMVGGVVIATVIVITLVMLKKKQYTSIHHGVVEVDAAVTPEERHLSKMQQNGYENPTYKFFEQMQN

In turn, `Clc1cccc(Cl)c1CSc1nnc(-c2ccc[nH]2)o1` showed an IC50 at Piezo1 (Homo sapiens) [1] of 1.3 µM. As to `C[C@@H]1O[C@@H](O[C@H]2[C@H](OC(=O)[C@]34CCC(C)(C)C[C@H]3C3=CC[C@@H]5[C@@]6(C)C[C@H](O)[C@@H]7O[C@@H]8O[C@H](CO)[C@@H](O)[C@H](O)[C@H]8O[C@@H]8OC[C@H](O)[C@H](O)[C@H]8OC(=O)CC(C)(O)CC(=O)OC[C@@]7(C)[C@@H]6CC[C@@]5(C)[C@]3(C)CC4)OC[C@H](O)[C@@H]2O)[C@H](O)[C@H](O[C@@H]2OC[C@@H](O)[C@H](O)[C@H]2O)[C@H]1O` (some centres undefined), on Piezo1 (Homo sapiens) [2], the IC50 was 1.11 µM. In turn, `CCCCCCCCCCCCCCCCC(=O)O` [HEPTADECANOIC ACID] showed an IC50 in assay [3] of 28.3 µM.

For the compound `O=C(/C=C/c1ccc(O)c2c1[C@H](C(=O)O[C@H](Cc1ccc(O)c(O)c1)C(=O)O)[C@@H](c1ccc(O)c(O)c1)O2)O[C@H](Cc1ccc(O)c(O)c1)C(=O)O`, on Piezo1 (Homo sapiens) [4], the IC50 was found to be 1.37 µM.
